Experimental data: patent publication US9783510B2, “Small molecule mediated transcriptional induction of E-cadherin” (Vanderbilt University, priority 2014, dated 2017)

What was measured:
[1] = test system: E-cadherin expression in SW620 cells; assay: E-cadherin expression, in-cell Western (ICW), SW620 cells; type: cell-based; details: for fold induction at 10 µM: SW-620, 24 h; for EC50: inducement of E-cadherin expression in SW620 cells
Method in brief: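 SW620 cells were treated with compound for 24 h in RPMI 1640 (single-point at 10 μM; EC50 also determined), in quadruplicate. After methanol fixation, in-cell Western with anti-E-cadherin and anti-α-tubulin primaries and IRDye 800/700 secondaries. Read on an Odyssey IR imager.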

[2] = test system: E-cadherin expression in H520 cells; assay: E-cadherin expression, in-cell Western (ICW), H520 cells; type: cell-based; details: Homo sapiens, NCI-H520; for fold induction at 10 µM: change in expression level of E-cadherin in response to 10 μM compound, 24 hours, H520 cells; for EC50: inducement of E-cadherin expression in H520 cells
Method: SW620 and H520 cells (5×10^4/100 μL) were seeded in a 96-well plate prior to treatment. Cells were treated with 10 μM concentration of synthesized compound in quadruplicate for 24 hours in RPMI 1640 supplemented medium and 100 μg/mL penicillin-streptomycin. The cells were then fixed with 100% methanol for 20 minutes at 4° C. The wells were then washed 2 times with PBS, permeabilized in 2% bovine serum albumin (BSA) and 0.2% TritonX-100 in PBS for 30 minutes at room temperature with gentle agitation, and blocked in LI-COR blocking buffer for 30 minutes at room temperature with gentle agitation. The cells were then incubated with the following primary antibodies: anti-E-Cadherin (1:500) and anti-α-Tubulin (1:1000) diluted in blocking buffer (1:1 dilution in PBS) for 2 hours at room temperature with gentle agitation. The cells were washed 4 times in PBS-T for 5 minutes each, and then incubated with the following secondary antibodies conjugated to a fluorescent entity: IRDye 800-conjugated goat anti-rabbit IgG (1:1000) and IRDye-700-conjugated goat anti-mouse IgG (1:2000) in blocking buffer (1:1 dilution in PBS) with gentle agitation for 1 h at room temperature. The cells were washed 4 times in PBS-T for 5 minutes each followed by a single wash with PBS. All liquid was removed from the wells and the plates were visualized and analyzed on the Odyssey IR imaging system (LI-COR Biosciences).
The assay was further optimized in the following manner. The cells were washed 2 times with PBS, fixed in 100% methanol at room temperature for 15 minutes, and again washed 2 times with PBS. The cells were then incubated with the following primary antibodies: anti-E-Cadherin (1:200) and anti-α-Tubulin (1:2000) diluted in ice cold 2% bovine serum albumin (BSA) and 0.2% TritonX-100 in PBS for 1 hour at room temperature with gentle agitation. The cells were washed 2 times in PBS and then incubated with the following secondary antibodies conjugated to a fluorescent entity: Licor 800-conjugated goat anti-rabbit IgG (1:2000) and IRDye-700-conjugated goat anti-mouse IgG (1:2000) in ice cold 2% BSA and 0.2% TritonX-100 in PBS with gentle agitation for 45 minutes at room temperature. The wells were washed 2 times in PBS, dried, and analyzed as previously mentioned.
Changes in expression level of E-cadherin in response to 10 μM compound in H520 cells was determined in a cell-based functional assay as described above, and the data are shown in Table IV. The compound number corresponds to the compound numbers used in Table II.
EC50 of inducement of E-cadherin expression in H520 cells was determined in a cell-based functional assay as described above, and the data are shown in Table VI. The compound number corresponds to the compound numbers used in Table II.

HMEC-1 cells = assay: E-cadherin, VE-cadherin, Vimentin and histone marks in HMEC-1 cells (qPCR, Western blot); type: cell-based, human; details: after 48 hours of treatment
[3] = test system: proximal region of the E-cadherin promoter (Cdh1) in SW620inv cells; assay: ChIP assay at proximal E-cadherin promoter, SW620inv cells; type: cell-based; details: ChIP (FIG. 8)
[4] = test system: E-cadherin, H3K9Ac, H3K4me3, H3K27me3, H3K4me2 in SW620inv cells; assay: Western blot time course of E-cadherin and histone H3 marks, SW620inv cells; type: cell-based
cyclin D1 protein = assay: Cyclin D1 protein by ICW (control for cycloheximide); type: cell-based; details: within the 7 hour experimental interval
Method: Compound 13 increased the mRNA levels of E-cadherin specific mRNA by 27-fold in SW620inv cells (FIG. 3B) and by 20-fold in H520 cells (FIG. 3C) by 6 hours post-treatment. […] Whether de novo protein synthesis was required for the effect of Compound 13 on E-cadherin mRNA expression was determined. For these experiments, cells were treated with cycloheximide prior to application of Compound 13 and the expression of E-cadherin mRNA was evaluated 6 hours post-treatment for best sensitivity. The levels of cyclin D1 protein, known to have a very short half-life of ˜20 minutes (Diehl, J. A., et al. (1998) Genes & Development 12, 3499-3511), were analyzed as a positive control for the effectiveness of cycloheximide (CHX) treatment.
Referring to FIG. 4B and FIG. 4C, quantification of cyclin D1 protein by ICW, as described above, and under similar conditions as in (4A) at 6 h post-treatment with or without cyclohexamide.

[5] = Homo sapiens, change in expression level of E-cadherin in response to 10 μM compound, 24 hours, SW620 cells

| Compound | fold induction at 10 µM [1, 5] | EC50 ([1]; Homo sapiens, SW-620) [µM] | fold induction at 10 µM [2] | also measured |
| --- | --- | --- | --- | --- |
| O=C(Cc1ccccc1O)NCCNC(=O)c1cc(-c2ccccc2)on1 [Compound 1, N-(2-(2-(2-hydroxyphenyl)acetamido)ethyl)-5-phenylisoxazole-3-carboxamide] | 3.4 | 3.7 | 3.51 | EC50 [2]: 5.6 µM |
| O=C(NCCNC(=O)c1cc(Br)ccc1O)c1cc(-c2ccccc2)on1 [Compound 2, N-(2-(5-bromo-2-hydroxybenzamido)ethyl)-5-phenylisoxazole-3-carboxamide] | 1.18 | – | 1.14 | – |
| O=C(NCCNC(=O)c1cc(-c2ccccc2)on1)c1ccncc1 [Compound 4, N-(2-(isonicotinamido)ethyl)-5-phenylisoxazole-3-carboxamide] | 2.79 | 8.8 | 2.87 | EC50 [2]: 5.1 µM |
| O=C(NCCNC(=O)c1nccs1)c1cc(-c2ccccc2)on1 [Compound 5, 5-phenyl-N-(2-(thiazole-2-carboxamido)ethyl)isoxazole-3-carboxamide] | 8.98 | 4.8 | 4.22 | – |
| Nc1ncn([C@@H]2O[C@H](CO)[C@@H](O)[C@H]2O)c(=O)n1 [Compound 5-Aza, 5-azacytidine] | – | – | – | restoring E-cadherin in HMEC-1 cells (HMEC-1 cells): neither TSA nor 5-Aza, nor the combination of these two agents, was effective |
| O=C(NCCCNC(=O)c1cc(F)ccc1O)c1cc(-c2ccccc2)on1 [Compound 20, N-(3-(5-fluoro-2-hydroxybenzamido)propyl)-5-phenylisoxazole-3-carboxamide] | 2.43 | 5 | 5.27 | EC50 [2]: 1.4 µM |
| O=C(Cc1ccccc1O)NCCCNC(=O)c1cc(-c2ccccc2)on1 [Compound 21, N-(3-(2-(2-hydroxyphenyl)acetamido)propyl)-5-phenylisoxazole-3-carboxamide] | 4.92 | 4.97 | 5.92 | EC50 [2]: 1.5 µM |
| O=C(NCCCNC(=O)c1n[nH]c2ccccc12)c1cc(-c2ccccc2)on1 [Compound 22, N-(3-(1H-indazole-3-carboxamido)propyl)-5-phenylisoxazole-3-carboxamide] | 1.62 | – | 1.88 | – |
| O=C(NCCCNC(=O)c1cc(-c2ccccc2)on1)c1cc(-c2ccccc2)ccn1 [Compound 119, 5-phenyl-N-(3-(4-phenylpicolinamido)propyl)isoxazole-3-carboxamide] | 4.13 | 5.64 | – | – |
| O=C(NCCCNC(=O)c1cccc(C(F)(F)F)n1)c1cc(-c2ccccc2)on1 [Compound 120, 5-phenyl-N-(3-(6-(trifluoromethyl)picolinamido)propyl)isoxazole-3-carboxamide] | 3.08 | – | – | – |
| O=C(NCCCNC(=O)C1CCCCO1)c1cc(-c2ccccc2)on1 (stereo not drawn) [Compound 121, 5-phenyl-N-(3-(tetrahydro-2H-pyran-2-carboxamido)propyl)isoxazole-3-carboxamide] | 3.74 | – | – | – |
| O=C(NCCNC(=O)c1cc(F)ccc1O)c1cc(-c2ccccc2)[nH]n1 [Compound 122, N-(2-(5-fluoro-2-hydroxybenzamido)ethyl)-5-phenyl-1H-pyrazole-3-carboxamide] | 1.45 | – | 1.04 | – |
| O=C(Cc1ccccc1O)NCCNC(=O)c1cc(-c2ccccc2)[nH]n1 [Compound 123, N-(2-(2-(2-hydroxyphenyl)acetamido)ethyl)-5-phenyl-1H-pyrazole-3-carboxamide] | 1.37 | – | 1.24 | – |
| O=C(NCCNC(=O)c1cc(-c2ccccc2)[nH]n1)c1ccncc1 [Compound 124, N-(2-(5-phenyl-1H-pyrazole-3-carboxamido)ethyl)isonicotinamide] | 1.29 | – | 1.22 | Pol II association with the E-cadherin proximal promoter [3]: did not show any effect |
| O=C(NCCNC(=O)c1nccs1)c1cc(-c2ccccc2)[nH]n1 [Compound 125, N-(2-(5-phenyl-1H-pyrazole-3-carboxamido)ethyl)thiazole-2-carboxamide] | 1.77 | – | 1.1 | – |
| CC(/C=C/C(=O)NO)=C\[C@@H](C)C(=O)c1ccc(N(C)C)cc1 [TSA, trichostatin A] | – | – | – | modification of the repressive marker H3K27me3 [4]: Less overall modification; time of peak of H3K9Ac and H3K4me3 levels ([4]; 0.33 μM TSA): 6 h; time at which increase in H3K9Ac and H3K4me3 levels is first observed ([4]; 10 μM Compound 13, 0.33 μM TSA): 1 h; restoring E-cadherin in HMEC-1 cells (HMEC-1 cells): neither TSA nor 5-Aza, nor the combination of these two agents, was effective |
| C[C@@H]1C[C@@H]([C@H](O)CC2CC(=O)NC(=O)C2)C(=O)[C@@H](C)C1 [cycloheximide] | – | – | – | cyclin D1 levels (cyclin D1 protein): markedly reduced; β-actin protein levels (cyclin D1 protein): not significantly altered |
| N-(3-(5-chlorofuran-2-carboxamido)propyl)-5-phenylisoxazole-3-carboxamide [Compound 113] | – | – | – | fold change SW620 ICW ([1]; change in expression level of E-cadherin in response to 10 μM compound, 24 hours, SW620 cells): 4.09 fold; EC50 [1]: 4.59 µM |
